Values of other authors, collected in patent US11642371B2, “Encapsulated antimicrobials and related methods of treatment” (ADVANTAGE SILVER DENTAL ARREST, LLC, priority 2018, dated 2023).

System: dentinal caries lesions
Conditions: lesions that had progressed into the dentin

Silver diamine fluoride [SDF]
dentinal caries lesions found to be arrested after treatment: two-thirds
